pEC50: −log10 of the molar value.
How the values were obtained:
[1] = In vitro potassium channel opening activity in A10 (smooth muscle) cells; format: functional, cell-based, Rattus norvegicus
Rattus norvegicus = assay: Effective dose required for lowering of blood pressure, when administered intravenously to CUP-anesthetized rats; format: functional; conditions: iv
[2] = In vitro potassium channel opening activity in A10 (smooth muscle) cells; Inactive; format: functional, cell-based, Rattus norvegicus

pEC50 [1] | EC50 [2] | SMILES | ED30 (Rattus norvegicus) [µg/kg]
8.40 | – | CCCNC1=NC(=O)[C@@]2(CC(C)(C)Oc3ccc(Br)cc32)N1 | 2.5
– | Not Active | CCCNC1=NC(=O)[C@]2(CC(C)(C)Oc3ccc(Br)cc32)N1 | –

— ChEMBL document CHEMBL1128819, “Chiral spirocyclic benzopyran potassium channel openers: Evidence for the active conformation of levcromakalim” (Bioorg Med Chem Lett, 1995)
